The record followed here is patent US7196112B2, “Cell adhesion inhibitors” (Biogen Idec MA Inc., priority 2004, dated 2007).

Assay [1] has as its target T1, α2β1 (Homo sapiens, UniProt P05556+P17301).
T1 construct: expressed in transfected cells; host or cells: K562 cells transfected with human α2 integrin chain (gift from M. Hemler)
As to the kind of experiment: α2β1/collagen I cell adhesion assay (K562 transfected with human α2 integrin chain). Format: cell-based. As to conditions: adhesion format, 1 mM MnCl2. On the procedure:
The ability of test compounds to block α2β1/collagen I and α1β1/collagen IV interactions were evaluated in cell adhesion assays. Collagen I and collagen IV were immobilized onto a 96-well Corning Easy Wash plate (Corning Cat. No. 25801). Human integrin-expressing cell lines (2×10^5/well) were labeled with a fluorescent compound, 2 μM BCECF-AM (Molecular Probes, Eugene, Oreg., Cat# B1150), and added with or without test compounds. After 30 minutes, the plates were washed, and bound cells quantified in a Cytofluor fluorescence plate reader. The assay buffer was TRIS-buffered saline (TBS: 24 mM TRIS, 137 mM NaCl, 2.7 mM KCl, 2 mM glucose, 0.1% BSA, pH 7.4), containing 1 mM MnCl2. The specificity of binding was controlled for using integrin specific neutralizing monoclonal antibodies. The antibodies were run at 10 μg/mL on each day of the assay and were as follows: anti-α4β1, mAb HP1/2 (Biogen); anti-α2β1, mAb 26G8 (Biogen); and α1β1, mAb AJH10 (Biogen).
The results presented in Table 3 summarize the integrin selectivity for PEGylated inhibitors. The selectivity of the PEGylated inhibitors for the four integrins indicated were tested in adhesion formats for α1β1 and α2β1, and by direct binding for α4β7. Serial dilutions of each compound were tested and IC50 values calculated from the concentration dependence of the inhibition curves. […]

The target in assay [2] is α4β1 (Homo sapiens, UniProt P05556+P13612). Briefly: VCAM-Ig direct binding assay (DBA), Jurkat cells.
Description: A direct binding assay may also be employed to quantitate the inhibitory activity of the compounds. In this assay, a VCAM-IgG fusion protein containing the first two immunoglobulin domains of VCAM (D1D2) attached above the hinge region of an IgG1 molecule (“VCAM 2D-IgG”), is conjugated to a marker enzyme, such as alkaline phosphatase (“AP”). […] The conjugation of that fusion to a marker enzyme is achieved by cross-linking methods well-known in the art.
The VCAM-IgG enzyme conjugate is then placed in the wells of a multi-well filtration plate, such as that contained in the Millipore Multiscreen Assay System (Millipore Corp., Bedford, Mass.). Varying concentrations of the test inhibitory compound are then added to the wells followed by addition of VLA-4-expressing cells. The cells, compound and VCAM-IgG enzyme conjugate are mixed together and allowed to incubate at room temperature. Following incubation, the wells are vacuum drained, leaving behind the cells and any bound VCAM. Quantitation of bound VCAM is determined by adding an appropriate calorimetric substrate for the enzyme conjugated to VCAM-IgG and determining the amount of reaction product. Decreased reaction product indicates increased binding inhibitory activity.
Samples were also evaluated for function using the VCAM-Ig direct binding assay. Details for the construction of the VCAM-Ig animal cell expression vector, the generation of a Chinese hamster ovary (CHO) cell line expressing VCAM-Ig, conjugation of the VCAM-Ig to alkaline phosphatase, and the development of a direct binding assay for characterizing α4β1 and α4β7 binding to VCAM-Ig were as previously described (see Lobb, R. R., et al. (1995) Cell Adhes. Commun. 3:385–397).
For these studies, a series of compounds based on compound E containing 0.35, 2, 5, 20, 30, and 50 kDa-mPEG was synthesized and tested for binding to α4β1 on Jurkat cells with VCAM-Ig as a reporter (see methods).
Assay [3] concerns the target T2, α4β7 (Homo sapiens, UniProt P13612+P26010).
T2 construct: host or cells: JY human B-cell line
T2 sequence (P13612 34-1032): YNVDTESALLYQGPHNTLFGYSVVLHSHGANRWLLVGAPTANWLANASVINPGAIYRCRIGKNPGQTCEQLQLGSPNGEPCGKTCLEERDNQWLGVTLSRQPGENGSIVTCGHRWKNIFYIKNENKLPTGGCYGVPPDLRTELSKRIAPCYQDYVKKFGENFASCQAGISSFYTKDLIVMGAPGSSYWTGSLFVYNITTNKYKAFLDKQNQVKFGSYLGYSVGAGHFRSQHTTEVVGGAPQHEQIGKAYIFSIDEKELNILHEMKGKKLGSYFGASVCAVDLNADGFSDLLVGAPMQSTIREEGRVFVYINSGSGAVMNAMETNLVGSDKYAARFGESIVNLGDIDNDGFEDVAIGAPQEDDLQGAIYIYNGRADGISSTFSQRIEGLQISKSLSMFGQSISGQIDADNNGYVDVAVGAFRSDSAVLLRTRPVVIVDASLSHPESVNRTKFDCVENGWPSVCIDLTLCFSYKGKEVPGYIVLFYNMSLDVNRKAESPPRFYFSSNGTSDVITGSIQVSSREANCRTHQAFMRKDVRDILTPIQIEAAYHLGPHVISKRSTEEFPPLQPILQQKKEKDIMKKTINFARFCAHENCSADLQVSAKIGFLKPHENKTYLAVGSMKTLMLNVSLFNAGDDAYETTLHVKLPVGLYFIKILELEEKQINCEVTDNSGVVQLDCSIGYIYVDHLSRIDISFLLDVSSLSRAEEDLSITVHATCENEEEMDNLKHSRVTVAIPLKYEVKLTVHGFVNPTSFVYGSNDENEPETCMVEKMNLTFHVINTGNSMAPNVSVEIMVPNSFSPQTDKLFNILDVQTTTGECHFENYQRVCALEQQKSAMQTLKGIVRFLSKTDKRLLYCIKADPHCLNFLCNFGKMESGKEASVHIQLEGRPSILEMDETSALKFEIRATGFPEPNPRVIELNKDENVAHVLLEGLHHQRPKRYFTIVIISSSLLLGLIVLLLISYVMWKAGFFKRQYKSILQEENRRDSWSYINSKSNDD
T2 sequence (P26010 20-798): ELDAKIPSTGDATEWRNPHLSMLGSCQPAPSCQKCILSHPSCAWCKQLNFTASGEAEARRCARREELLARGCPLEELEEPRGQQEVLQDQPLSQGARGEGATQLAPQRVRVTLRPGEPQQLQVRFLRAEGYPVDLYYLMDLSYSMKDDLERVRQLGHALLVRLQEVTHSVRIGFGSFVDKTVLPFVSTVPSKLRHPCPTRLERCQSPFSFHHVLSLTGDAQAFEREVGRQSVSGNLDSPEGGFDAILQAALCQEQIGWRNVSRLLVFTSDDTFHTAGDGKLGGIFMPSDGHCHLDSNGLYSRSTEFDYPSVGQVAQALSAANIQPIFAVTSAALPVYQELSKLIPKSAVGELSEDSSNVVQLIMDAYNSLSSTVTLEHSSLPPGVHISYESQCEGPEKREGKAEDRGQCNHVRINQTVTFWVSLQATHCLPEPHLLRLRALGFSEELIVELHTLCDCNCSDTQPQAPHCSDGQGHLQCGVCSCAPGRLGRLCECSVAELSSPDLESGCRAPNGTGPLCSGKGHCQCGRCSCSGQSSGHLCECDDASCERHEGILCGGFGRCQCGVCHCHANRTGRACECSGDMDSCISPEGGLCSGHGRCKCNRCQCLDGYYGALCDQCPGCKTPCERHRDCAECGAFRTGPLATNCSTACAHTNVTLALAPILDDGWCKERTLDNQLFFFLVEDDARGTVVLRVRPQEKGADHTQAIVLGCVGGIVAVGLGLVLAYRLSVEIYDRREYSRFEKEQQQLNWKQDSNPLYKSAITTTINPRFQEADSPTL
Briefly: Direct binding assay for α4β7 (VCAM-Ig, JY cells). On the procedure: The results presented in Table 3 summarize the integrin selectivity for PEGylated inhibitors. The selectivity of the PEGylated inhibitors for the four integrins indicated were tested in adhesion formats for α1β1 and α2β1, and by direct binding for α4β7. Serial dilutions of each compound were tested and IC50 values calculated from the concentration dependence of the inhibition curves. KD values derived from kinetic data are shown for binding to α4β1.

SMILES strings stand for the structures. Where only a bound is given, the exact number is not on record here.

Sequence of α4β1 (P05556 21-798, one chain of several): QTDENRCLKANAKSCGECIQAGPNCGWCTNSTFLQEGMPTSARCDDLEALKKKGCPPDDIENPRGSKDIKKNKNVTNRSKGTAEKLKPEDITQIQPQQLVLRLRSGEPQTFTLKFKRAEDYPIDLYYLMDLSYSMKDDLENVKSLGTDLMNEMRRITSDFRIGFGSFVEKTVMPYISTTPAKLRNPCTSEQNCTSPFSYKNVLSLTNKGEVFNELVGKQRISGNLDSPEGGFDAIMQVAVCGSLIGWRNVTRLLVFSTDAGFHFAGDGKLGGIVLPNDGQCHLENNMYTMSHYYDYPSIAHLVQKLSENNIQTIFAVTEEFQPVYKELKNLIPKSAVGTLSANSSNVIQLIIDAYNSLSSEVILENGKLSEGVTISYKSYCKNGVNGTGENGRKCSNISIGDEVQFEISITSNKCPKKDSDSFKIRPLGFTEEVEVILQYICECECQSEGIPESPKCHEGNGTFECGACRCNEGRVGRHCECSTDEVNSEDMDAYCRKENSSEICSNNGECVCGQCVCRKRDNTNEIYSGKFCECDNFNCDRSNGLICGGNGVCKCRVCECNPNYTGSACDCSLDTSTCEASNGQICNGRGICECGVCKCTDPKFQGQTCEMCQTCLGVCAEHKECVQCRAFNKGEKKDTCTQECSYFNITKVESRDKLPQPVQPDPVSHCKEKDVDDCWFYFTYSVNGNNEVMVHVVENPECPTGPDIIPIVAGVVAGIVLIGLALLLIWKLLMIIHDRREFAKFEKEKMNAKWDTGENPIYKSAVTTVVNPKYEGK
T1 sequence (P17301 30-1181): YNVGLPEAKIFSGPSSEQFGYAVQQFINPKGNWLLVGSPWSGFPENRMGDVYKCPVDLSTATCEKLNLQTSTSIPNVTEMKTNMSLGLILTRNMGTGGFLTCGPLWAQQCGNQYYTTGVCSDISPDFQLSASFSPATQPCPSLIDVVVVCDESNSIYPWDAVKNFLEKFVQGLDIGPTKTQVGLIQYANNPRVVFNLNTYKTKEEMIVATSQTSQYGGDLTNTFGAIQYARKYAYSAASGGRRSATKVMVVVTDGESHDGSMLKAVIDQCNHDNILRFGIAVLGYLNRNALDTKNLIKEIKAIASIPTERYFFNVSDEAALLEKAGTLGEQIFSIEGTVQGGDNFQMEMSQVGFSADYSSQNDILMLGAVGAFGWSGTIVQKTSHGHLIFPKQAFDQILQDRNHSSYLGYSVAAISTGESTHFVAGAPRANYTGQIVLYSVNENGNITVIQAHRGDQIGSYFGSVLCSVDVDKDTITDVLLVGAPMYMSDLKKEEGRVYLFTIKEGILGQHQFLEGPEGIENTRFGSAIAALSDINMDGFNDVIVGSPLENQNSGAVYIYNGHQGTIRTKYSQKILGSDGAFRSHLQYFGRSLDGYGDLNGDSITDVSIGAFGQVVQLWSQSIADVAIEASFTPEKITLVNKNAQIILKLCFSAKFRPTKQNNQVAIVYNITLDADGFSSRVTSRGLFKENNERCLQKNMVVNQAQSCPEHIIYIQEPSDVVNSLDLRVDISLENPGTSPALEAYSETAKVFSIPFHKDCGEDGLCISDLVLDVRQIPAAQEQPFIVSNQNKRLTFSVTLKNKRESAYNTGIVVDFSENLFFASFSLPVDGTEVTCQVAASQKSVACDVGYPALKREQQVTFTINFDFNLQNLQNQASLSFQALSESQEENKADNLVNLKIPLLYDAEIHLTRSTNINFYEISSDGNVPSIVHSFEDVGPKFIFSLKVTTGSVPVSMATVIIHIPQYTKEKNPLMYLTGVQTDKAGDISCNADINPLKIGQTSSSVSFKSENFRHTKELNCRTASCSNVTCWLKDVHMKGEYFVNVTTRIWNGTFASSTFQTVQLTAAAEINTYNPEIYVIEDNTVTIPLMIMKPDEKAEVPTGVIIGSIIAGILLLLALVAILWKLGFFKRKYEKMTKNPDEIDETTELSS
T1 sequence (P05556 21-798): as the sequence (P05556 21-798, one chain of several) above

The term IC50 denotes the midpoint of a concentration-inhibition curve. High values mean a need for much substance, low ones inhibition by little substance. For the compound `Cc1ccccc1NC(=O)Nc1ccc(CC(=O)N(C)[C@@H](CC(C)C)C(=O)NCC[C@H](NC(=O)C2CCCN2S(=O)(=O)c2ccccc2)C(=O)O)cc1` (stereo partly drawn) [Compound B, 2S-[(1-benzenesulfonyl-pyrrolidine-2S-carbonyl)-amino]-4-[4-methyl-2S-(methyl-{2-[4-(3-o-tolyl-ureido)-phenyl]-acetyl}-amino)-pentanoylamino]-butyric acid], the IC50 is 5 µM in assay [1]; 0.013 µM in assay [2] (DBA IC50 100% rat plasma, 100% rat plasma); 0.002 µM in assay [2] (DBA IC50 Ca2+Mg2+, Ca2+Mg2+); 0.0012 µM in assay [2] (DBA IC50 Mn2+, Mn2+); over 1 µM in assay [3] (direct binding).

As to `Cc1ccccc1NC(=O)Nc1ccc(CC(=O)N(C)[C@@H](CC(C)C)C(=O)NCC[C@H](NC(=O)[C@@H]2CCCN2S(=O)(=O)c2cc(Cl)cc(Cl)c2)C(=O)O)cc1` [Compound R, 2S-{[1-(3,5-dichloro-benzenesulfonyl)-pyrrolidine-2S-carbonyl]-amino}-4-[4-methyl-2S-(methyl-{2-[4-(3-o-tolyl-ureido)-phenyl]-acetyl}-amino)-pentanoylamino]-butyric acid], the “affinity higher for α4β1 than for α4β7” value in assay [3] (α4β1 versus α4β7) is recorded as > 2,000 fold.
